Measured values: patent US20260250318A1, “COMPOSITIONS AND METHODS FOR CROSSING THE BLOOD BRAIN BARRIER” (VOYAGER THERAPEUTICS, INC., priority 2022, published 2026)

Legend:
[1] = tested on: brains, heart, liver, muscle, and DRG of the NHPs; assay: Maturation of TTM-001 and TTM-002 capsids, NGS enrichment in NHP tissues; format: in vivo; conditions: relative to AAV9 control
In short: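 Variants carry mutations within and flanking the loop IV peptide insert: positions 450–466 were triplet-randomized, while positions 449–466 received low-frequency point mutations. The combined pool went into two NHPs, and each peptide was scored by NGS enrichment ratio against AAV9.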

[2] = tested on: brain; assay: Matured TTM-001 and TTM-002 variants, NGS enrichment in mouse brain; format: in vivo, mice; conditions: relative to AAV9 control
[3] = NGS fold-enrichment of RNA, NHP brain
[4] = NGS fold-enrichment, NHP liver DNA
[5] = NGS fold-enrichment, NHP liver RNA
[6] = NGS fold-enrichment, NHP muscle
[7] = NGS fold-enrichment, mouse brain
[8] = NGS fold-enrichment of matured AAV capsid variants, NHP brain, RNA
[9] = NGS fold-enrichment, DRG of NHPs
[10] = NGS fold-enrichment, RNA, brain of NHPs
[11] = NGS fold-enrichment, heart of NHPs
[12] = NGS fold-enrichment, liver DNA of NHPs
[13] = NGS fold-enrichment, liver RNA of NHPs
[14] = NGS fold-enrichment, muscle of NHPs
[15] = NGS fold-enrichment, brain of mice

Sequence	Fold Enrichment relative to AAV9, Brain (NHP) [1, 3]	Fold Enrichment relative to AAV9, DRG (NHP) ([1]; NGS fold-enrichment, NHP DRG)	Fold Enrichment relative to AAV9, Heart (NHP) ([1]; NGS fold-enrichment, NHP heart)	Fold Enrichment relative to AAV9, Liver DNA (NHP) [1, 4]	Fold Enrichment relative to AAV9, Liver RNA (NHP) [1, 5]	Fold Enrichment relative to AAV9, Muscle (NHP) [1, 6]	Fold Enrichment relative to AAV9, Brain (Mouse) [2, 7]	Fold Enrichment relative to AAV9, Brain (NHP) [1, 8]	Fold Enrichment relative to AAV9, DRG (NHP) ([1]; NHP DRG)	Fold Enrichment relative to AAV9, Heart (NHP) ([1]; NHP heart)	Fold Enrichment relative to AAV9, Liver DNA (NHP) ([1]; NHP liver, DNA)	Fold Enrichment relative to AAV9, Liver RNA (NHP) ([1]; NHP liver, RNA)	Fold Enrichment relative to AAV9, Muscle (NHP) ([1]; NHP muscle)	Fold Enrichment relative to AAV9, Brain (Mouse) ([2]; mouse brain)	Fold Enrichment relative to AAV9, DRG (NHP) [1, 9]	Fold Enrichment relative to AAV9, Brain (NHP) [1, 10]	Fold Enrichment relative to AAV9, Heart (NHP) [1, 11]	Fold Enrichment relative to AAV9, Liver DNA (NHP) [1, 12]	Fold Enrichment relative to AAV9, Liver RNA (NHP) [1, 13]	Fold Enrichment relative to AAV9, Muscle (NHP) [1, 14]	also measured
KTEVGHDSPHKSGQNQQT	112.457 fold	0.000 fold	0.011 fold	0.138 fold	0.000 fold	0.000 fold	13.125 fold	–	–	–	–	–	–	–	–	–	–	–	–	–	–
KTEVTSGSPHSKAQNQQT	–	–	–	–	–	–	–	54.663 fold	0.000 fold	0.000 fold	0.185 fold	0.323 fold	0.000 fold	81.482 fold	–	–	–	–	–	–	–
KTEYISGSPHSKAQNQQT	–	–	–	–	–	–	–	57.891 fold	0.000 fold	0.000 fold	0.075 fold	0.076 fold	0.000 fold	57.620 fold	–	–	–	–	–	–	–
KTEYNSGSPHSKAQNQQT	–	–	–	–	–	–	–	50.256 fold	0.000 fold	0.000 fold	0.009 fold	0.000 fold	0.000 fold	62.679 fold	–	–	–	–	–	–	–
KTFHGSGSPHSKTQNQQT	94.714 fold	0.000 fold	0.210 fold	0.000 fold	0.000 fold	0.120 fold	51.119 fold	–	–	–	–	–	–	–	0.000 fold	94.714 fold	0.210 fold	0.000 fold	0.000 fold	0.120 fold	Fold Enrichment relative to AAV9, Brain (Mouse) [2, 15]: 51.119 fold
KTFKGSGSPHSKAPNQQT	80.890 fold	0.000 fold	0.000 fold	0.017 fold	0.000 fold	0.000 fold	71.144 fold	–	–	–	–	–	–	–	0.000 fold	80.890 fold	0.000 fold	0.017 fold	0.000 fold	0.000 fold	Fold Enrichment relative to AAV9, Brain (Mouse) [2, 15]: 71.144 fold
KTFNASGSPHSKAPNQQT	–	–	–	–	–	–	–	–	–	–	–	–	–	–	0.208 fold	65.392 fold	0.000 fold	0.156 fold	0.215 fold	0.000 fold	Fold Enrichment relative to AAV9, Brain (Mouse) [2, 15]: 66.275 fold
